Experimental data: patent US6544964B1, “Method for fixing or separating ions, in particular of lead, using per(3,6-anhydro)cy-clodextrin derivatives” (priority 1997, dated 2003)

Experiments:
[1] = Affinity constant for Pb from the NMR results of examples 2 to 4; format: binding; details: aqueous solution (D2O), 298 K
Method: (§1) To an aqueous solution of the permethyl derivative obtained in example 1 is added an aqueous lead nitrate solution in order to obtain an aqueous solution containing 3 mmole/l of permethyl derivative and 1 mmole/l of lead nitrate. The solution obtained is analyzed by nuclear magnetic resonance under the same conditions as in example 1 (500 MHz, D2O, 298 K).
(§2) The same operating procedure as in example 2 is followed, but the aqueous solution incorporates 3 mmole/l of the permethyl derivative of example 1 and 3 mmole/l of lead nitrate.
(§3) The same operating procedure as in example 3 is followed, but addition also takes place of sodium nitrate so as to obtain an aqueous solution incorporating 3 mmole/l of the permethyl derivative of example 1, 3 mmole/l of lead nitrate and 3 mmole/l of sodium nitrate.

[2] = Formation of the lead complex in aqueous solution, followed by proton NMR; format: binding
Method: as §1
In this case, the exchange is sufficiently slow compared with the NMR observation time, to observe the two signals corresponding to the free cyclodextrin (FIG. 1(a)) and to the complex (FIG. 1(b)).
as §2, §3

Substance	affinity constant for Pb [1]	NMR spectrum of the lead complex in presence of sodium ions ([2]; 3 mmole/l derivative, 3 mmole/l lead nitrate, 3 mmole/l sodium nitrate)	lead complexation (respective surfaces of free and complexed parts) ([2]; 3 mmole/l permethyl derivative, 1 mmole/l lead nitrate, D2O, 298 K, 500 MHz, free:complexed 2 for 1)	lead complexation (NMR signals) ([2]; 3 mmole/l permethyl derivative, 3 mmole/l lead nitrate, D2O, 298 K)
Hexakis (3,6-Anhydro-2-0-methyl)cyclomaltohexaose [Example 1]	approximately 10^5	not modified	all the lead present is complexed	only the signals of the complex are visible
hexakis (3,6-anhydro)cyclomaltohexaose [reference compound]	approximately 2500			
